Test results taken from US20230149515A1, “INHIBITION OF SARS-COV-2 VIRAL ENTRY THROUGH ORAL ADMINISTRATION OF L[…] USES THEREOF” (priority 2020, published 2023).

Tested on: SARS-CoV-2
Format: cell-based
Conditions: positive control; Huh7 cells; FIG. 1 (50 nanomolar Remdesivir)

## CCC(CC)COC(=O)[C@H](C)N[P@](=O)(OC[C@H]1O[C@@](C#N)(c2ccc3c(N)ncnn23)[C@H](O)[C@@H]1O)Oc1ccccc1 [Remdesivir, reference compound]
  efficacy in SARS-CoV-2 infectivity assay: 100%
